Data as given in PMC9505123, “Zeta-Carotene Isomerase (Z-ISO) Is Required for Light-Independent Carotenoid Biosynthesis in the Cyanobacterium Synechocystis sp. PCC 6803” (Microorganisms, 2022).

Target: T1, Synechocystis ZDS (CrtQ) (Synechocystis sp. PCC 6803, UniProt P74306)
T1 construct: pCDFDuet-1 MCS1, co-expressed with slr1599 (pAH587) or maize Z-ISO (pAH590) in E. coli BL21(DE3) with pAC-ZETAipi
T1 sequence (P74306 1-489): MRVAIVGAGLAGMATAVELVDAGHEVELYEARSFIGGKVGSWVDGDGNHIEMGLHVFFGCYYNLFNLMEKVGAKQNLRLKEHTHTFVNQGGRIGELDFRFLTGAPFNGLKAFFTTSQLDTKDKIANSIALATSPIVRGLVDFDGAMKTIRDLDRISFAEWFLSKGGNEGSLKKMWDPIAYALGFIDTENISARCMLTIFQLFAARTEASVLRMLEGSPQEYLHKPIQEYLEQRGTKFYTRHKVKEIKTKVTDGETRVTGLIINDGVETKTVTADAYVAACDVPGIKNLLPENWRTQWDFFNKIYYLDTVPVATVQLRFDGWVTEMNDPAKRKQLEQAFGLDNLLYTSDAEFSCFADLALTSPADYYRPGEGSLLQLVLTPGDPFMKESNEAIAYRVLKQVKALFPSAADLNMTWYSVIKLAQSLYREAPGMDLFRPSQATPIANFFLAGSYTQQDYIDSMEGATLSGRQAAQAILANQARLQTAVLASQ
Assay: RP-HPLC of carotenoids from dark-grown E. coli co-expressing pAC-ZETAipi and Z-ISO
Format: cell-based
Details: 37 °C, 24 h, substrate formed in situ by Slr1599 or maize Z-ISO, converted to cis-lycopene isomers

CC(C)=CCC/C(C)=C/CC\C(C)=C/C=C/C(C)=C/C=C/C=C(C)/C=C/C=C(/C)CC/C=C(\C)CCC=C(C)C [9,9′-di-cis-ζ-carotene]
RP-HPLC of carotenoids from dark-grown E. coli co-expressing pAC-ZETAipi and Z-I: ζ-carotene species were almost completely absent and a variety of new carotenoid species
